One experiment concerns MITF in B16F10 cells. Kind of experiment: Western blot of nuclear MITF. It counts as cell-based, murine. The settings on record: nuclear fraction. The method, then:
Five different concentrations of 1b (0, 2, 5, 10, and 20 µM) were exposed to B16F10 cells for 48 h, and the cells were washed with cold PBS two times, harvested, lysed, and centrifuged at 4 °C (12,000 rpm for 10 min). Cell pellets were suspended in 10 mM Tris (pH 8.0) containing 1.5 mM MgCl2, 1 mM DTT, 0.1% NP-40, and protease inhibitors (GenDEPOT), incubated on ice for 15 min, and centrifuged at 12,000× g for 15 min at 4 °C. Supernatants (cytosolic fractions) and pellets were resuspended in 10 mM Tris (pH 8.0) containing 50 mM KCl, 100 mM NaCl, and protease inhibitor, incubated on ice for 30 min, and centrifuged at 12,000× g for 15 min at 4 °C. The resultant supernatants were nuclear fractions. The protein concentrations were determined by a Bicinchoninic Acid (BCA)™ Assay Kit (Pierce, Rockford, IL, USA). The lysed protein samples were mixed in loading buffer (0.2% bromophenol blue, 12.5 mM Tris-HCl, pH 6.8, 10% 2-mercaptoethanol, and 4% SDS) at a volume ratio of 1:4, and boiled for 10 min. […] Quantification of Western blot data were analyzed by CS Analyzer 3.2 (Densitograph) image software (http://www.attokorea.co.kr, admitted on 21 May 2022).

A short description of experiment [1]: DPPH radical scavenging activity assay. The settings on record: compound 1.0 mM, 30 min in the dark, 517 nm. The method, then:
The DPPH (2,2-diphenyl-1-picrylhydrazyl) scavenging activities of synthesized compounds 1a–1p were investigated as previously described, with minor modifications. A dimethyl sulfoxide solution (20 µL) containing 10 mM of each compound was mixed with DPPH methanol solution (0.2 mM, 180 µL) in the wells of a 96-well plate, and placed in the dark for 30 min at room temperature. At 517 nm, optical densities were measured using a microplate reader (VersaMax^TM, Molecular Devices, Sunnyvale, CA, USA). The DPPH radical scavenging ability of the 2-arylbenzothiazole derivatives was compared with that of L-ascorbic acid, the positive control. All experiments were performed independently in triplicate.

In a further experiment the target is T1, mushroom tyrosinase (Agaricus bisporus, UniProt C7FF04).
T1 construct: purchased Sigma-Aldrich
T1 sequence (C7FF04 1-392 limits assumed): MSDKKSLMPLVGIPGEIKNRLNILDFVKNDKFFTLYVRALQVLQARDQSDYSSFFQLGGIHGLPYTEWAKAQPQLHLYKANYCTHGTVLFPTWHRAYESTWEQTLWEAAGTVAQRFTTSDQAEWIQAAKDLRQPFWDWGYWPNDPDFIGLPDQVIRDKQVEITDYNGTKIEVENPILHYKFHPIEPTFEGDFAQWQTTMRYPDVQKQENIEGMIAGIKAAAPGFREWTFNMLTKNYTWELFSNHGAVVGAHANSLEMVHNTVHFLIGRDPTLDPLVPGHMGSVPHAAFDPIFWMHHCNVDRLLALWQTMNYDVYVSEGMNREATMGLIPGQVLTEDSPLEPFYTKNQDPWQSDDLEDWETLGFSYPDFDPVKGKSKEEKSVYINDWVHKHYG
The experiment in a line: Mushroom tyrosinase inhibition assay. The format is biochemical. The following applies: L-DOPA as substrate.

Structures are written as SMILES.

As for `Oc1ccc(-c2nc3cc(C(F)(F)F)ccc3s2)c(O)c1` [Compound 1b, 4-(5-(Trifluoromethyl)benzo[d]thiazol-2-yl)benzene-1,3-diol], the MITF protein levels result in the experiment on MITF in B16F10 cells (high concentrations (10–20 µM)) is “significantly and dose-dependently reduced MITF protein levels”; in the experiment on MITF in B16F10 cells (low concentrations (2–5 μM)), “MITF protein levels increased”. Further, the “DPPH radical scavenging activity” value in experiment [1] was “moderate DPPH radical scavenging efficacy”. For the same molecule, 1.7 ± 0.11 µM corresponded to half-maximal inhibition at mushroom tyrosinase (IC50).

The record behind these values is article PMC9311798, “A Novel Class of Potent Anti-Tyrosinase Compounds with Antioxidant Activity, 2-(Substituted phenyl)-5-(trifluoromethyl)benzo[d]thiazoles: In Vitro and In Silico Insights” (Antioxidants, 2022).
